Source: patent US20110201869A1, “METHOD AND APPARATUS FOR ENHANCED TRANSDERMAL DIFFUSION” (OBJ LIMITED, priority 2008, published 2011)
Values belong to the compound of their own block, whether it stands above or below them.

Tests used:
[1] = in vitro Franz Cell diffusion study through excised epidermis; format: in vitro ADME, piglet
Experimental: FIG. 4 is a plot of the substance Tetracaine through excised piglet ear epidermis in an in vitro Franz Cell diffusion study. Epidermal membranes were obtained by heat separation (60 sec at 60° C., Kligman and Christophers 1963). Skin integrity was determined by conductance measurement before the experiment. Skin sections from each ear were matched over the groups per experiment. Epidermal membranes were placed between the donor and receptor compartments of Franz-type diffusion cells with the stratum corneum facing the donor chamber. The epidermal membranes were equilibrated with the receptor solution (USP PBS, pH 7.4) for 30 min. The receptor compartment of the cell was immersed in a water bath at 37±0.5° C., and stirred every 5 min throughout the experiment. After equilibration, the donor solution consisting of 1 mL of 2 (FIG. 4a) or 4% Tetracaine HCL (FIG. 4B; Sigma) in PBS was added, and the present invention was suspended 3 mm above the surface of the donor fluid (i.e. 8 mm above the epidermal surface). The passive diffusion cells received the same donor drug concentration and were covered with parafilm only, i.e. no material of the present invention was applied. The administration period was 0-1 hr. Samples of the receptor solution were removed and replaced with fresh buffer over a 60 minute period. All samples were analysed for Tetracaine hydrochloride content by spectrophotometric detection (absorbance at 229 nm). The cumulative amount of Tetracaine hydrochloride in the receptor compartment versus time was plotted for both experiments. After the diffusion experiment the skin, still fixed in the diffusion chamber, was stained with standard HE dye. The diffusion area was investigated under a microscope for the occurrence of damage to the skin. Data derived from epidermis with low skin integrity was excluded from analysis and graphical depiction.
FIG. 5 is a plot of the substance Sumatriptan through excised piglet ear epidermis in an in vitro Franz Cell diffusion study. […] All samples were analysed for Sumatriptan content by spectrophotometric detection (absorbance at 285 nm). […]

[2] = Methyl Nicotinate Laser-Doppler vasodilation model (transdermal delivery in vivo); set-up: species or system human
Description: FIG. 7 depicts the enhancing effects of the present invention on the delivery of Methyl Nicotinate through human skin in vivo. The Methyl Nicotinate Laser-Doppler vasodilation model was used (see Hollaway et al, J. Invest Dermatol 69:306-309, 1977; Wester et al., J. Invest Dermatol 83:515-517, 1984). […] In short, successful transdermal delivery of the rubifacient Methyl Nicotinate through the skin results in pronounced vasodilation, increased perfusion and erythema. […] The Methyl Nicotinate induced vasodilation can be measured using a non-invasive Laser Doppler Flow or Perfusion meter with data being provided as a numeric value equitable to local in vivo blood perfusion. The present experiment involved the saturation of 4 cm^2 tissue paper units with Methyl Nicotinate (5 mmolar in PBS). The Methyl Nicotinate tissues were applied to the skin of the volar forearm. The present invention (4 cm^2) and the passive surrogate units were placed over the Methyl Nicotinate soaked paper units. For 5 minutes one active and one passive unit were applied adjacently onto the skin of the forearm. Subsequently, all materials were removed from the skin and the skin was patted dry. Laser Doppler perfusion probes (Moor Instruments Laser Doppler Perfusion Meter) were placed over both areas and blood perfusion rates were monitored for a 30 minute period. […]

diffusion through excised epidermis under the influence of the present invention compared to passive diffusion ([1]; 2% Tetracaine HCL in PBS donor, 0-1 hr, magnetic device suspended 8 mm above epidermal surface, FIG. 4A): enhanced diffusion
diffusion through excised epidermis under the influence of the present invention compared to passive diffusion ([1]; 4% Tetracaine HCL in PBS donor, 0-1 hr, magnetic device suspended 8 mm above epidermal surface, FIG. 4B): enhanced diffusion
SMILES: CCCCNc1ccc(C(=O)OCCN(C)C)cc1 [Tetracaine]

diffusion through excised epidermis under the influence of the present invention compared to passive diffusion ([1]; Sumatriptan succinate 2 mg/ml donor, 0-30 min, FIG. 5): enhanced diffusion
SMILES: CNS(=O)(=O)Cc1ccc2[nH]cc(CCN(C)C)c2c1 [Sumatriptan]

delivery through human skin in vivo with the present invention compared with passive diffusion (blood perfusion by Laser Doppler) ([2]; 5 mmolar in PBS, 5 minutes application on volar forearm, perfusion monitored 30 minutes, FIG. 7): effective at enhanced delivery
diffusion with 480 gauss / 300 poles per meter versus 120 gauss / 500 poles per meter device ([2]; 2 milli-molar, human forearm skin in vivo, FIG. 8): similar
SMILES: COC(=O)c1cccnc1 [Methyl Nicotinate]
